# Experimental data: patent US20230255979A1, “METHODS OF TREATING ACUTE RESPIRATORY DISORDERS” (Bristol-Myers Squibb Company, priority 2020, published 2023)
# Entries after “also recorded” stand apart in the source; their conditions may differ.
# Experiments:
# [1] = system: peripheral blood mononuclear cell (PBMCs); experiment: Cytokine assessment in PBMCs pretreated with compound, then LPS or SEB/IL-2 treatment; format: cell-based, human; details: 1 h pretreatment
# monocytes = experiment: Cytokine production in LPS-stimulated monocytes; format: cell-based, human
# Method: (§1) In addition, PBMCs were isolated from buffy coat using Ficoll gradient method and were used for monocyte enrichment without CD16 depletion with the Stem Cell technologies kit (Cat #19058). […] All cells were cultured at 37° C. with 5% CO2 in a humidified incubator.
# as §1, with “For Monocytes:” for “In addition,”, “incubator. Supernatant was collected for cytokine and chemokine analysis.” for “incubator.”
# (§2) For Macrophages: monocytes were differentiated into macrophages by stimulation with 50 ng/ml of MCS-F for 5 days followed by treatment with 50 ng/ml Interferon gamma for ˜16 hours. Macrophages were then plated, allowed to acclimate for 24 hours. […] All cells were cultured at 37° C. with 5% CO2 in a humidified incubator. Supernatants were collected for further analysis. Cytokine and chemokine analysis was performed in the supernatants using Magpix magnetic beads.
# macrophages = experiment: Cytokine production in LPS-stimulated macrophages; format: cell-based, human; details: compound 4 h or 24 h
# Method: as §2
# whole blood = experiment: Pharmacodynamic assessment in MAD study, ex vivo LPS stimulation of whole blood (TruCulture); parameters: species or system human; details: healthy volunteers, 150 mg, individual level data
# Method: The study consisted of escalating multiple doses in sequential groups. Thirty-seven subjects were enrolled into 5 dose level cohorts (10, 30, 60, 120, and 150 mg).
# Each subject participated in a screening phase, a treatment phase (included baseline). Eligible subjects were admitted to the study site on Day −1 and resided at the study site from Day −1 to Day 17. The first dose of study drug was administered on Day 1, under fasted conditions, according to the randomization schedule. The same QD dose was administered for the remainder of the planned treatment schedule (Day 2 to Day 14, inclusive). For each dose level cohort in Part 2, blood samples were collected on Day 1 predose (0-hour), and predose (0-hour) on Days 2, 3, 5, 8, 11, and 14. Blood samples were also collected at approximately the same time of the day as the Days 1 to 14 samples on Days 15, 17, 21, and 28. Subjects were discharged from the study site on Day 17 upon satisfactory safety review and completion of the required study procedures. For all dose level cohorts, subjects returned to the study site for outpatient visits on Day 21 and Day 28. There were no early terminations.
# Ex vivo stimulation was performed in whole blood using the TruCulture® assay system (Myriad RBM, Austin, Tex.). […] Briefly, blood (1 ml) was drawn into the LPS-containing TruCulture tubes from each subject on the days listed in the study protocol. The truculture tubes were placed in a 37° C. block thermostat for 24±1 hrs and then frozen at −70° C. Media mixed with plasma was analyzed for TNF-α and other cytokine/chemokine levels. TNF-α inhibition in ex vivo LPS-stimulated blood was measured as percent change in TNF-α levels from baseline. Percent change in other cytokines/chemokines in the ex vivo stimulation assay was also measured with respect to their baseline levels.
# PBMCs = experiment: RT-PCR gene expression of cytokines and chemokines in LPS-treated PBMCs from HV; details: LPS 1.5 hrs then compound 1.5 hrs
compound,measurement,setting,value
CCOCc1cnc(Cl)nc1Oc1ccc2c(ccc3sc4c(c32)NC[C@@H](C)NC4=O)n1 [Compound I-82],inhibition of TNF-α in PBMCs,"[1]; LPS stimulation 24 hours, FIG. 1A",dose dependent inhibition; also recorded: decreased in a dose-dependent manner
same,inhibition of TNF-α in PBMCs,"[1]; SEB/IL-2 treatment 3 days, FIG. 1B",dose dependent inhibition; also recorded: decreased in a dose-dependent manner
same,inhibition of TNF-α in monocytes,"monocytes; LPS stimulation 23 hours, FIG. 2",dose dependent inhibition; also recorded: decreased in a dose-dependent manner
same,inhibition of TNF-α in monocytes,"monocytes; compound 4 h or 24 h, LPS 3 or 23 hours, FIG. 3",dose-dependent inhibition; also recorded: inhibits
same,inhibition of IL-6 in monocytes,"monocytes; compound 4 h or 24 h, LPS 3 or 23 hours, FIG. 4A",dose-dependent inhibition; also recorded: inhibits
same,inhibition of IL-1β in monocytes,"monocytes; compound 4 h or 24 h, LPS 3 or 23 hours, FIG. 4B",dose-dependent inhibition; also recorded: inhibits
same,inhibition of IL-6 in macrophages,"macrophages; LPS 3 or 23 hours, FIG. 4A",dose-dependent inhibition; also recorded: inhibits
same,inhibition of IL-1β in macrophages,"macrophages; LPS 3 or 23 hours, FIG. 4B",dose-dependent inhibition; also recorded: inhibits
same,inhibition of TNF-α in macrophages,"macrophages; LPS (100 ng/ml) 3 or 23 hours, FIG. 3",dose-dependent inhibition; also recorded: inhibits
same,inhibition of IL-6 following ex vivo LPS stimulation,whole blood; FIG. 8B,inhibition of IL-6
same,inhibition of MIP-1A following ex vivo LPS stimulation,whole blood; FIG. 8C,inhibition of MIP-1A
same,inhibition of MIP-1B following ex vivo LPS stimulation,whole blood; FIG. 8D,inhibition of MIP-1B
same,inhibition of gene expression of MCP-1,PBMCs; FIG. 5A,inhibition of gene expression; also recorded: inhibits gene expression
same,inhibition of gene expression of IL-6,PBMCs; FIG. 5B,inhibition of gene expression; also recorded: inhibits gene expression
same,inhibition of gene expression of IL-1β,PBMCs; FIG. 5C,inhibition of gene expression; also recorded: inhibits gene expression
same,inhibition of gene expression of TNF-α,PBMCs; FIG. 6A,inhibits gene expression
same,inhibition of gene expression of GM-CSF,PBMCs; FIG. 6B,inhibition of gene expression; also recorded: inhibits gene expression
same,inhibition of gene expression of ZFP36 (TTP),PBMCs; FIG. 6C,does not inhibit gene expression
